# Results reported in patent US20080262082A1, “COMPOSITION CONTAINING S-(-)-TULIPALIN B OR ACETYLATED-S-(-)-TULIPALIN B” (BIO SPECTRUM, INC., priority 2007, published 2008).
# Like-named read-outs stand apart in the source and are kept apart here.
# Tests used:
# Format in all cases: cell-based
# [1] = system: Streptococcus mutans KCTC 3065; experiment: Agar diffusion antibacterial test (aerobic); conditions: S. mutans
# [2] = system: Salmonella typhimurium KCTC 2514; experiment: Agar diffusion antibacterial test (aerobic); conditions: S. typhimurium
# [3] = system: Shigella sonnei KCTC 2518; experiment: Agar diffusion antibacterial test (aerobic); conditions: S. sonnei
# [4] = system: Yersinia enterocolitica KCCM 41657; experiment: Agar diffusion antibacterial test (aerobic); conditions: Y. enterocolitica
# [5] = system: Aeromonas salmonicida KCTC 12266; experiment: Agar diffusion antibacterial test (aerobic); conditions: A. salmonicida
# [6] = system: Propionibacterium granulosum ATCC 25564; experiment: Agar diffusion antibacterial test (anaerobic); conditions: P. granulosum
# [7] = system: Clostridium perfringens KCCM 12098; conditions: C. perfringens
# [8] = system: Corynebacterium glutamicum KCTC 1445; experiment: Agar diffusion antibacterial test (anaerobic); conditions: C. glutamicum
# [9] = system: Helicobacter pylori KCTC 5335; experiment: Agar diffusion antibacterial test (anaerobic); conditions: H. pylori
# [10] = system: Bacteroides fragilis KCTC 3688; experiment: Agar diffusion antibacterial test (anaerobic); conditions: B. fragilis
# [11] = system: Listeria monocytogenes KCTC 3569; experiment: MIC by broth dilution method; conditions: L. monocytogenes, 37° C., 24 hours
# [12] = system: Yersinia enterocolitica KCCM 41657; experiment: MIC by broth dilution method; conditions: Y. enterocolitica, 37° C., 24 hours
# [13] = system: Legionella pneumophila KCCM 41779; conditions: L. pneumophila; broth dilution, 37° C., 24 hours
# [14] = system: Neisseria meningitidis KCCM 41562; experiment: MIC by broth dilution method; conditions: N. meningitidis, 37° C., 24 hours
# [15] = system: Moraxella catarrhalis KCCM 40056; experiment: MIC by broth dilution method; conditions: M. catarrhalis, 37° C., 24 hours
# [16] = system: Clostridium perfringens KCCM 12098; conditions: C. perfringens; broth dilution, 37° C., 24 hours
# [17] = system: Corynebacterium glutamicum KCTC 1445; experiment: MIC by broth dilution method; conditions: C. glutamicum, 37° C., 24 hours
# [18] = system: Campylobacter jejuni KCTC 5327; experiment: MIC by broth dilution method; conditions: C. jejuni, 37° C., 24 hours
# [19] = system: Helicobacter pylori KCTC 5335; experiment: MIC by broth dilution method; conditions: H. pylori, 37° C., 24 hours
# [20] = system: 8 anaerobic bacterial species; experiment: Agar diffusion antibacterial test, overall (anaerobic); conditions: 8 anaerobic bacterial spp, agar diffusion
structure (smiles),measurement,setting,value
"C=C1C(=O)OC[C@H]1O [S-(−)-tulipalin B, (4S)-4-hydroxy-3-methylene-oxolan-2-one]",Inhibitory zone diameter,[1]; treatment concentration 0.1%,11 mm
same,Inhibitory zone diameter,[1]; treatment concentration 0.3%,13 mm
same,Inhibitory zone diameter,[1]; treatment concentration 1.0%,16 mm
same,Inhibitory zone diameter,[2]; treatment concentration 0.03%,11 mm
same,Inhibitory zone diameter,[2]; treatment concentration 0.1%,13 mm
same,Inhibitory zone diameter,[2]; treatment concentration 0.3%,17 mm
same,Inhibitory zone diameter,[2]; treatment concentration 1.0%,20 mm
same,Inhibitory zone diameter,[3]; treatment concentration 0.03%,11 mm
same,Inhibitory zone diameter,[3]; treatment concentration 0.1%,12 mm
same,Inhibitory zone diameter,[3]; treatment concentration 0.3%,17 mm
same,Inhibitory zone diameter,[3]; treatment concentration 1.0%,19 mm
same,Inhibitory zone diameter,[4]; treatment concentration 0.03%,11.5 mm
same,Inhibitory zone diameter,[4]; treatment concentration 0.1%,13 mm
same,Inhibitory zone diameter,[4]; treatment concentration 0.3%,17 mm
same,Inhibitory zone diameter,[4]; treatment concentration 1.0%,19 mm
same,Inhibitory zone diameter,[5]; treatment concentration 0.01%,11 mm
same,Inhibitory zone diameter,[5]; treatment concentration 0.03%,12 mm
same,Inhibitory zone diameter,[5]; treatment concentration 0.1%,13 mm
same,Inhibitory zone diameter,[5]; treatment concentration 0.3%,17 mm
same,Inhibitory zone diameter,[5]; treatment concentration 1.0%,19 mm
same,Inhibitory zone diameter,[6]; treatment concentration 0.03%,10.5 mm
same,Inhibitory zone diameter,[6]; treatment concentration 0.1%,13 mm
same,Inhibitory zone diameter,[6]; treatment concentration 0.3%,15 mm
same,Inhibitory zone diameter,[6]; treatment concentration 1.0%,16 mm
same,Inhibitory zone diameter,[7]; treatment concentration 0.1%,11 mm
same,Inhibitory zone diameter,[7]; treatment concentration 0.3%,13 mm
same,Inhibitory zone diameter,[7]; treatment concentration 1.0%,14 mm
same,Inhibitory zone diameter,[8]; treatment concentration 0.1%,10.5 mm
same,Inhibitory zone diameter,[8]; treatment concentration 0.3%,11 mm
same,Inhibitory zone diameter,[8]; treatment concentration 1.0%,12 mm
same,Inhibitory zone diameter,[9]; treatment concentration 0.01%,10.5 mm
same,Inhibitory zone diameter,[9]; treatment concentration 0.03%,12 mm
same,Inhibitory zone diameter,[9]; treatment concentration 0.1%,14 mm
same,Inhibitory zone diameter,[9]; treatment concentration 0.3%,16 mm
same,Inhibitory zone diameter,[9]; treatment concentration 1.0%,18 mm
same,Inhibitory zone diameter,[10]; treatment concentration 0.01%,10.5 mm
same,Inhibitory zone diameter,[10]; treatment concentration 0.03%,12 mm
same,Inhibitory zone diameter,[10]; treatment concentration 0.1%,14 mm
same,Inhibitory zone diameter,[10]; treatment concentration 0.3%,16 mm
same,Inhibitory zone diameter,[10]; treatment concentration 1.0%,18 mm
same,MIC,[11],0.10%
same,MIC,[12],0.015%
same,MIC,[13],0.03%
same,MIC,[14],0.01%
same,MIC,[15],0.03%
same,MIC,[16],0.08%
same,MIC,[17],0.10%
same,MIC,[18],0.008%
same,MIC,[19],0.01%
same,Antibacterial effects,[20],relatively high antibacterial effects
